# Reference: PMC4871610 (Cell, 2015)
# pIC50: −log10 of the molar value.
# Assays:
# CutC (choline TMA lyase) [1] = target: T1, CutC (choline TMA lyase) (Proteus mirabilis, UniProt B4EYG1); test: anaerobic d9-TMA production with purified CutC and CutD, LC/MS/MS; type: biochemical
# T1 sequence (B4EYG1 1-1142): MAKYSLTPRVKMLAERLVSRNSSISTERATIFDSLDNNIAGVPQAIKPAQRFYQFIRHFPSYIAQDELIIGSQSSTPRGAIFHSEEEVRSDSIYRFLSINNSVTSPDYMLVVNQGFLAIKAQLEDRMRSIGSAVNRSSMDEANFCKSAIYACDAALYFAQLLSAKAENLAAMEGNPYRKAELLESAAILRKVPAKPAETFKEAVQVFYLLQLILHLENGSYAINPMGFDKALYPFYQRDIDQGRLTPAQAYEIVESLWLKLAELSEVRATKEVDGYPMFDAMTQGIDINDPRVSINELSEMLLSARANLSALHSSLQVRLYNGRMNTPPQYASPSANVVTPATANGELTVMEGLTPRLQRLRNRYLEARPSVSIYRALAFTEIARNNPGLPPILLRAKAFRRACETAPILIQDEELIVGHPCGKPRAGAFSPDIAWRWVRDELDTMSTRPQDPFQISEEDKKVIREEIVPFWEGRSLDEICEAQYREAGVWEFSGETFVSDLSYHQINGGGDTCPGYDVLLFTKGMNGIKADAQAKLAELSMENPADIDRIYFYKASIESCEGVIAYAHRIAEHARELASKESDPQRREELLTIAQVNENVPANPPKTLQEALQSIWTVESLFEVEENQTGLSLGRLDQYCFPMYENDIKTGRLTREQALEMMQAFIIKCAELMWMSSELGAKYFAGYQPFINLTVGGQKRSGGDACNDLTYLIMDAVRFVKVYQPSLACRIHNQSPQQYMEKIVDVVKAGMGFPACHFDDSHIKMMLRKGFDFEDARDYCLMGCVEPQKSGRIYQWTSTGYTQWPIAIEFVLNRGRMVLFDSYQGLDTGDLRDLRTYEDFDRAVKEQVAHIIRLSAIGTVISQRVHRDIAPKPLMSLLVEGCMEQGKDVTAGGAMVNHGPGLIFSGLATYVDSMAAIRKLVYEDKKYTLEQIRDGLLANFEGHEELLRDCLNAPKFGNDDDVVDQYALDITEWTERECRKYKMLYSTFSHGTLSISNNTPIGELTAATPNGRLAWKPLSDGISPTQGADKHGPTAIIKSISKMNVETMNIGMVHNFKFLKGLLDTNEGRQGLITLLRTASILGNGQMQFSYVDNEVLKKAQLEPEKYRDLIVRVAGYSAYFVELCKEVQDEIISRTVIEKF
# T1 sequence (B4EYG0 1-316 partner): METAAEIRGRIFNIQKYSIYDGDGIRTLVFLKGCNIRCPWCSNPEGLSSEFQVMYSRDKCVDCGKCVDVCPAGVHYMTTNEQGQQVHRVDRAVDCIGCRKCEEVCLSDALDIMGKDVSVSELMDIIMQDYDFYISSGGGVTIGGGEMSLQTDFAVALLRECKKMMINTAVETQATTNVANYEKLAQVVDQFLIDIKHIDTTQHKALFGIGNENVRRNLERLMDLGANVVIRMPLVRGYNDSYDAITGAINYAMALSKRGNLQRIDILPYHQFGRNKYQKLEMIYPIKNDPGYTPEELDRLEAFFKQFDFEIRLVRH
# CutC (choline TMA lyase) [2] = target: T1, CutC (choline TMA lyase); test: d9-TMA production from d9-choline in cutC/D-transformed E. coli lysate; type: cell-based
# CutC (choline TMA lyase) [3] = target: T1, CutC (choline TMA lyase); test: d9-TMA production from d9-choline in cutC/D-transformed E. coli lysate, LC/MS/MS; type: biochemical
# YeaW = target: T2, YeaW (Escherichia coli, UniProt P0ABR7); test: d9-TMA production by purified YeaW/X, LC/MS/MS; type: biochemical
# T2 sequence (P0ABR7 1-374): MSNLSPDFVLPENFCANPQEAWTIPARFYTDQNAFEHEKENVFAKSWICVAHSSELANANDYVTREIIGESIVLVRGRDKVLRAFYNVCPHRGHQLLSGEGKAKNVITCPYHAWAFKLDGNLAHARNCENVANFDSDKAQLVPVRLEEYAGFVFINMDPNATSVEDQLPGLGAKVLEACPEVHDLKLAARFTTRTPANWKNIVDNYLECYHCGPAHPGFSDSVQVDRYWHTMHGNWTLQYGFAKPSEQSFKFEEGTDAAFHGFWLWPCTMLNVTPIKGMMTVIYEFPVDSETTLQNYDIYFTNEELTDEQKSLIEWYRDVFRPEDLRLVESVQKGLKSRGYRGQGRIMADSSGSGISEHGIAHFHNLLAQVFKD
# CutC (choline TMA lyase) [4] = target: T1, CutC (choline TMA lyase); test: d9-TMA production by purified CutC and CutD, LC/MS/MS; type: biochemical
compound,measurement,setting,value
"CC(C)(C)CCO [DMB, 3,3-dimethyl-1-butanol]",pIC50,CutC (choline TMA lyase) [1],~5.00
"C[P+](C)(C)CCO [P-choline, (2-Hydroxyethyl)(trimethyl)phosphonium]",d9-TMA production from d9-choline in cutC/D-transformed E. coli lysate (activity),CutC (choline TMA lyase) [2],phosphonium analogue of choline (P-choline) showed a unique effect by augmenting cutC/D choline TMA lyase activity
"C[Si](C)(C)CCO [TMSi-ETOH, 2-(trimethylsilyl)ethanol]",pIC50,CutC (choline TMA lyase) [3],~5.00
C[N+](C)(C)CC(O)CC(=O)[O-] (centres unmarked) [carnitine],"d9-TMA production by purified YeaW/X, LC/MS/MS",YeaW,Purified YeaW/X showed enzymatic cleavage of d9-carnitine
C[N+](C)(C)CCO [choline],"d9-TMA production by purified CutC and CutD, LC/MS/MS",CutC (choline TMA lyase) [4],both purified polypeptides showed dose-dependent inhibition in TMA production from either choline or GPC substrates
